Laboratory results: US12060349B2, “Glucosylceramide synthase inhibitors” (Genzyme Corporation, priority 2012, dated 2024)
Where two headings read alike, the source gives them in different places.

Columns and labels:
B16 mouse melanoma cells = assay: cell viability in the B16 cell-based assay (Viability, B16 IC50); conditions: read-out: Viability, B16 IC50, concentration causing 50% cell death, values greater than 10 represent a lack of cell death
Procedure: (§1) The cell based assay was performed in two different cell types, B16 and C32. Cell viability was also assessed in the second, cell-based assay.
(§2) The “Compound Number” in the table corresponds to the compound disclosed in the Example of the same number. […] The results of the cell based assays (performed in two different cell systems, i.e. B16 mouse melanoma or C32 human melanoma cells) are expressed as “GM3 B16 IC50” or “GM3 C32 IC50” for the B16 assay and the C32 assay, respectively. […] The results of the viability assays are expressed as “Viability, B16 IC50” or “Viability, C32 IC50”, respectively. These values represent the concentration of the compound causing 50% cell death. Values greater than 10 represent a lack of cell death.

[1] = biological target: T1, glucosylceramide synthase (Homo sapiens, UniProt Q16739); assay: microsomal assay measuring conversion of ceramide to glucosylceramide by HPLC (GCS IC50); assay type: biochemical; conditions: concentration causing 50% inhibition of glucosylceramide synthase activity
T1 construct: Microsomes were isolated from A375 human melanoma cells; endogenous in cells; host or cells: A375 human melanoma cells (microsomal fraction, 100,000 g pellet)
T1 sequence (Q16739 1-394): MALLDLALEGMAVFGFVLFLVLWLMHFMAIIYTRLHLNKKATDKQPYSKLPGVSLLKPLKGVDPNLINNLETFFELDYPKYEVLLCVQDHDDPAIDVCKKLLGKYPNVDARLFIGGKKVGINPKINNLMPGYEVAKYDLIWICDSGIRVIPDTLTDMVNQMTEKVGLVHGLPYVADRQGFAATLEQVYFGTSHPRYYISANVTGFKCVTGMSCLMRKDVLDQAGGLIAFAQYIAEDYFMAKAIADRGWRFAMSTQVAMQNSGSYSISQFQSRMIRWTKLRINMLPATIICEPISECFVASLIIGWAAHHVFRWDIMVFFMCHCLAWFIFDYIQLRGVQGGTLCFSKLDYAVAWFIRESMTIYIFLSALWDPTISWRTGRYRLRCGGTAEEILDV
Procedure: Inhibition of glucosylceramide synthase activity for certain compounds of the invention were measured with 1) a microsomal assay that directly measures the conversion of ceramide to glucosylceramide by HPLC and 2) second, cell based, phenotypic assay that monitors cell surface expression of the downstream lipid GM3 by antibody mediated immunofluorescence. The cell based assay was performed in two different cell types, B16 and C32. Cell viability was also assessed in the second, cell-based assay.
The “Compound Number” in the table corresponds to the compound disclosed in the Example of the same number. The results of the microsomal assay are expressed as “GCS IC50”, which represents the concentration of the compound causing 50% inhibition of glucosylceramide synthase activity. The results of the cell based assays (performed in two different cell systems, i.e. B16 mouse melanoma or C32 human melanoma cells) are expressed as “GM3 B16 IC50” or “GM3 C32 IC50” for the B16 assay and the C32 assay, respectively. These values represent the concentration of the compound causing 50% inhibition of GM3 expression on the cell surface. The results of the viability assays are expressed as “Viability, B16 IC50” or “Viability, C32 IC50”, respectively. These values represent the concentration of the compound causing 50% cell death. Values greater than 10 represent a lack of cell death.

[2] = test system: GM3 expression on the cell surface, C32 human melanoma cells; assay: cell based phenotypic assay, cell surface GM3 by antibody mediated immunofluorescence, C32 (GM3 C32 IC50); conditions: 50% inhibition of GM3 expression on the cell surface
Procedure: as §1, §2

[3] = test system: GM3 expression on the cell surface, B16 mouse melanoma cells; assay: cell based phenotypic assay, cell surface GM3 by antibody mediated immunofluorescence, B16 (GM3 B16 IC50); conditions: 50% inhibition of GM3 expression on the cell surface
Procedure: as §1, §2

C32 human melanoma cells = assay: cell viability in the C32 cell-based assay (Viability, C32 IC50); conditions: read-out: Viability, C32 IC50, concentration causing 50% cell death, values greater than 10 represent a lack of cell death
Procedure: as §1, §2

[4] = Homo sapiens, read-out: GM3 C32 IC50, C32 human melanoma cells
[5] = Mus musculus, read-out: GM3 B16 IC50, B16 mouse melanoma cells
[6] = Homo sapiens, C32 human melanoma cells, read-out: GM3 C32 IC50
[7] = Mus musculus, B16 mouse melanoma cells, read-out: GM3 B16 IC50

Row | Compound | IC50 (B16 mouse melanoma cells; B16 cells) [µM] | IC50 [1] [µM] | IC50 [2, 4] [nM] | IC50 [3, 5] [µM] | IC50 (C32 human melanoma cells; C32 cells) [µM] | IC50 (B16 mouse melanoma cells; Mus musculus, B16, B16 cells) [µM] | IC50 [2, 6] [nM] | IC50 [3, 7] [µM] | IC50 (C32 human melanoma cells; Homo sapiens, C32, C32 cells) [µM] | IC50 (B16 mouse melanoma cells; Mus musculus, B16 cells) [µM] | IC50 ([2]; C32 human melanoma cells, read-out: GM3 C32 IC50) [nM] | IC50 ([3]; B16 mouse melanoma cells, read-out: GM3 B16 IC50) [µM] | IC50 (C32 human melanoma cells; Homo sapiens, C32 cells) [µM]
1 | O=C(OC1CN2CCC1CC2)N1CCN(c2ccc(-c3ccccc3)cc2)CC1 (centres unmarked) [Example 6, Quinuclidin-3-yl 4-([1,1′-biphenyl]-4-yl)piperazine-1-carboxylate] | 5.21 | 5.6 | 1000 | 3.52 | 4.12 |  |  |  |  |  |  |  | 
2 | O=C(NC1CN2CCC1CC2)N1CCN(c2ccccc2)CC1 (centres unmarked) [Example 7, 4-Phenyl-N-(quinuclidin-3-yl)piperazine-1-carboxamide] |  | 12.2 |  |  |  | ≥ 10 | 7080 | > 10 | ≥ 10 |  |  |  | 
3 | O=C(NC1CCN2CCC1CC2)N1CCN(c2ccccc2)CC1 (centres unmarked) [Example 8, N-(1-Azabicyclo[3.2.2]nonan-4-yl)-4-phenylpiperazine-1-carboxamide] |  | 3.31 |  |  |  |  |  |  |  | ≥ 10 | 518 | > 10 | ≥ 10
4 | CC1(NC(=O)N2CCN(c3ccccc3)CC2)CN2CCC1CC2 (centres unmarked) [Example 9, N-(3-Methylquinuclidin-3-yl)-4-phenylpiperazine-1-carboxamide] |  | 12.2 |  |  |  | ≥ 10 | 7590 | > 10 | ≥ 10 |  |  |  | 
5 | CC1(NC(=O)N2CCN(c3ccccc3)CC2)CCN2CCC1CC2 (centres unmarked) [Example 10, N-(4-Methyl-1-azabicyclo[3.2.2]nonan-4-yl)-4-phenylpiperazine-1-carboxamide] |  | 14.7 |  |  |  | ≥ 10 | 4240 | > 10 | ≥ 10 |  |  |  | 
6 | O=C(N1CCN(c2ccccc2)CC1)N1CCN2CCC1CC2 [Example 11, 1,4-Diazabicyclo[3.2.2]nonan-4-yl(4-phenylpiperazin-1-yl)methanone] |  | 20.8 |  |  |  | ≥ 10 | > 10000 | > 10 | ≥ 10 |  |  |  | 
7 | O=C(OC1CN2CCC1CC2)N1CCN(c2ccccc2)CC1 (centres unmarked) [Example 12, Quinuclidin-3-yl 4-phenylpiperazine-1-carboxylate] | ≥ 10 | 12.2 | > 10000 | > 10 | ≥ 10 |  |  |  |  |  |  |  | 
8 | O=C(NC1CN2CCC1CC2)N1CCN(c2cccc(-c3ccccc3)c2)CC1 (centres unmarked) [Example 13, 4-([1,1′-Biphenyl]-3-yl)-N-(quinuclidin-3-yl)piperazine-1-carboxamide] |  | 2.47 |  |  |  | 8.59 | 697 | 6.8 | ≥ 10 |  |  |  | 
9 | O=C(NC1CCN2CCC1CC2)N1CCN(c2cccc(-c3ccccc3)c2)CC1 (centres unmarked) [Example 14, 4-([1,1′-Biphenyl]-3-yl)-N-(1-azabicyclo[3.2.2]nonan-4-yl)piperazine-1-carboxamide] |  | 0.705 |  |  |  | 6.79 | 108 | 3.39 | ≥ 10 |  |  |  | 
10 | CC1(NC(=O)N2CCN(c3cccc(-c4ccccc4)c3)CC2)CN2CCC1CC2 (centres unmarked) [Example 15, 4-([1,1′-Biphenyl]-3-yl)-N-(3-methylquinuclidin-3-yl)piperazine-1-carboxamide] |  | 0.839 |  |  |  | ≥ 10 | 172 | 0.368 | ≥ 10 |  |  |  | 
11 | CC1(NC(=O)N2CCN(c3cccc(-c4ccccc4)c3)CC2)CCN2CCC1CC2 (centres unmarked) [Example 16, 4-([1,1′-Biphenyl]-3-yl)-N-(4-methyl-1-azabicyclo[3.2.2]nonan-4-yl)piperazine-1-carboxamide] |  | 0.0495 |  |  |  | 6.76 | 12.4 | 0.181 | 1 |  |  |  | 
12 | O=C(N1CCN(c2cccc(-c3ccccc3)c2)CC1)N1CCN2CCC1CC2 [Example 17, (4-([1,1′-Biphenyl]-3-yl)piperazin-1-yl)(1,4-diazabicyclo[3.2.2]nonan-4-yl)methanone] |  | 12.2 |  |  |  | ≥ 10 | 6360 | 6.31 | ≥ 10 |  |  |  | 
13 | O=C(OC1CN2CCC1CC2)N1CCN(c2cccc(-c3ccccc3)c2)CC1 (centres unmarked) [Example 18, Quinuclidin-3-yl 4-([1,1′-biphenyl]-3-yl)piperazine-1-carboxylate] | 8.36 | 0.551 | 563 | 2.04 | ≥ 10 |  |  |  |  |  |  |  | 
